Patent publication US8859535B2, “Hydroxy substituted isoquinolinone derivatives” (Novartis AG, priority 2011, dated 2014)

Legend:
[1] = target: T1, human MDM4 protein (amino acids 2-185) (Homo sapiens, UniProt O15151); assay: p53-MDM4 TR-FRET assay (p53-MDM4 Assay 1); format: binding; details: 2.5 nM MDM4-biotinylated, 10 nM Cy5-p53 peptide; read-out: IC50 (μM) of p53-Hdm4 inhibition (TR-FRET) Assay 1
T1 construct: human MDM4 protein (amino acids 2-185); made in house
T1 sequence (O15151 2-185): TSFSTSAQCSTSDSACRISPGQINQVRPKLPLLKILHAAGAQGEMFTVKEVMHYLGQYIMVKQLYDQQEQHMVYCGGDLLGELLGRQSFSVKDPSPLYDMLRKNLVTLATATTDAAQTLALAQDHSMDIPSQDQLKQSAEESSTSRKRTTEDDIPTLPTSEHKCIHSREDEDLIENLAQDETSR
How it was run: (§1)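 C-terminally biotinylated MDM2 (aa 2-188, 1.25 nM) or MDM4 (aa 2-185, 2.5 nM) with Eu-streptavidin (0.625 nM), 15 min preincubation, then 10 nM Cy5-p53 peptide (aa18-26), 15 min room temperature; TR-FRET 665/620 nm ratio, IC50 by curve fit. Modified MDM2 Assay 2 uses 0.1 nM MDM2 and 0.1 nM Eu-streptavidin.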

[2] = target: T2, human MDM2 protein (amino acids 2-188) (Homo sapiens, UniProt Q00987); assay: p53-MDM2 TR-FRET assay (p53-MDM2 Assay 1); format: binding; details: 1.25 nM MDM2-biotinylated, 10 nM Cy5-p53 peptide; read-out: IC50 (μM) of p53-Hdm2 inhibition (TR-FRET) Assay 1
T2 construct: human MDM2 protein (amino acids 2-188); made in house
T2 sequence (Q00987 2-188): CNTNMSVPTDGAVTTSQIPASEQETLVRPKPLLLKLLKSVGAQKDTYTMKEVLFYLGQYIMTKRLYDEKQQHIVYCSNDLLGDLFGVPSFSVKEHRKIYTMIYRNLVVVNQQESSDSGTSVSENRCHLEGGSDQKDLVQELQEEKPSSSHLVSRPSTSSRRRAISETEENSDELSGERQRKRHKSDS
How it was run: as §1

**Q.** COc1cc2c(cc1OC(C)C)[C@H](c1ccc(Cl)cc1)N(c1ccc(C(C)(O)C3CCOCC3)cc1)C(=O)C2 (mixture of isomers) [Example 30, (S)-1-(4-Chloro-phenyl)-2-{4-[1-hydroxy-1-(tetrahydro-pyran-4-yl)-ethyl]-phenyl}-7-isopropoxy-6-methoxy-1,4-dihydro-2H-isoquinolin-3-one] was tested. Which IC50 [1] did it give?
**A.** 4.06 µM

**Q.** What about the IC50 [2] of the same molecule?
**A.** 0.0037 µM

**Q.** For COc1cc2c(cc1OC(C)C)[C@H](c1ccc(Cl)cc1)N(c1ccc(C(C)(O)C3CN(C4CCOCC4)C3)cc1)C(=O)C2 (stereo partly drawn) [Example 98, (S)-1-(4-Chloro-phenyl)-2-(4-{1-hydroxy-1-[1-(tetrahydro-pyran-4-yl)-azetidin-3-yl]-ethyl}-phenyl)-7-isopropoxy-6-methoxy-1,4-dihydro-2H-isoquinolin-3-one], which IC50 [1] is on record?
**A.** 34.7 µM

**Q.** What about the IC50 [2] of the same molecule?
**A.** 0.0342 µM

**Q.** How did the IC50 [1] turn out when COc1cc2c(cc1OC(C)C)[C@H](c1ccc(Cl)cc1)N(c1ccc([C@@](C)(O)C34CC5CC(CC(C5)C3)C4)cc1)C(=O)C2 (single isomer, unassigned) [Example 142] was run?
**A.** 13.2 µM

**Q.** And the IC50 [2]?
**A.** 0.0054 µM

**Q.** For COc1cc2c(cc1OC(C)C)[C@H](c1ccc(Cl)cc1)N(c1ccc(C(C)(O)C3CC[S+]([O-])CC3)cc1)C(=O)C2 (stereo partly drawn) [Example 169, (S)-1-(4-Chloro-phenyl)-2-{4-[1-hydroxy-1-(1-oxo-hexahydro-1-thiopyran-4-yl)-ethyl]-phenyl}-7-isopropoxy-6-methoxy-1,4-dihydro-2H-isoquinolin-3-one], which IC50 [1] is on record?
**A.** 8.3 µM

**Q.** What about the IC50 [2] of the same molecule?
**A.** 0.0096 µM

**Q.** Which results are given for COc1cc2c(cc1OC(C)C)[C@H](c1ccc(Cl)cc1)N(c1ccc(C(C)(O)c3ccc(F)cc3)cc1)C(=O)C2 (stereo partly drawn) [Example 6, (S)-1-(4-Chloro-phenyl)-2-{4-[1-(4-fluoro-phenyl)-1-hydroxy-ethyl]-phenyl}-7-isopropoxy-6-methoxy-1,4-dihydro-2H-isoquinolin-3-one]?
**A.** IC50 [1]: 61.8 µM; IC50 [2]: 0.0343 µM

**Q.** How did the IC50 [1] turn out when COc1cc2c(cc1OC(C)C)[C@H](c1ccc(Cl)cc1)N(c1ccc(C(C)(O)c3ccccn3)cc1)C(=O)C2 (stereo partly drawn) [Example 18, (S)-1-(4-Chloro-phenyl)-2-[4-(1-hydroxy-1-pyridin-2-yl-ethyl)-phenyl]-7-isopropoxy-6-methoxy-1,4-dihydro-2H-isoquinolin-3-one] was run?
**A.** 37.2 µM

**Q.** What about the IC50 [2] of the same molecule?
**A.** 0.0368 µM

**Q.** Which IC50 [1] does the source give for COc1ccc(C(O)c2ccc(N3C(=O)Cc4cc(OC)c(OC(C)C)cc4[C@@H]3c3ccc(Cl)cc3)cc2)cc1 (stereo partly drawn) [Example 4, (S)-1-(4-Chloro-phenyl)-2-{4-[hydroxy-(4-methoxy-phenyl)-methyl]-phenyl}-7-isopropoxy-6-methoxy-1,4-dihydro-2H-isoquinolin-3-one] here?
**A.** 17.3 µM

**Q.** And the IC50 [2]?
**A.** 0.0107 µM

**Q.** What does the source list for CC(C)Oc1cc2c(cc1OCC(=O)N(C)C)CC(=O)N(c1ccc(C(C)(O)C3CCOCC3)cc1)[C@H]2c1ccc(Cl)cc1 (stereo partly drawn) [Example 149, 2-((S)-1-(4-Chloro-phenyl)-2-{4-[1-hydroxy-1-(tetrahydro-pyran-4-yl)-ethyl]-phenyl}-7-isopropoxy-3-oxo-1,2,3,4-tetrahydro-isoquinolin-6-yloxy)-N,N-dimethyl-acetamide]?
**A.** IC50 [1]: 5.53 µM; IC50 [2]: 0.0101 µM

**Q.** COc1cc2c(cc1OC(C)C)[C@H](c1ccc(Cl)cc1)N(c1ccc(C3(O)CCC3)cc1)C(=O)C2 [Example 51, (S)-1-(4-Chloro-phenyl)-2-[4-(1-hydroxy-cyclobutyl)-phenyl]-7-isopropoxy-6-methoxy-1,4-dihydro-2H-isoquinolin-3-one] was tested. Which IC50 [1] did it give?
**A.** 45.3 µM

**Q.** What about the IC50 [2] of the same molecule?
**A.** 0.0731 µM

**Q.** How did the IC50 [1] turn out when COc1cc2c(cc1OC(C)C)[C@H](c1ccc(Cl)cc1)N(c1ccc(C(C)(O)C3CCN(C(=O)CC#N)CC3)cc1)C(=O)C2 (stereo partly drawn) [Example 88, 3-[4-(1-{4-[(S)-1-(4-Chloro-phenyl)-7-isopropoxy-6-methoxy-3-oxo-3,4-dihydro-1H-isoquinolin-2-yl]-phenyl}-1-hydroxy-ethyl)-piperidin-1-yl]-3-oxo-propionitrile] was run?
**A.** 10.8 µM

**Q.** And the IC50 [2]?
**A.** 0.0114 µM

**Q.** What does the source list for COc1cc2c(cc1OC(C)C)[C@H](c1ccc(Cl)cc1)N(c1ccc(C(C)(O)c3ccc(NC(C)=O)cc3)nc1)C(=O)C2 (stereo partly drawn) [Example 24, N-[4-(1-{5-[(S)-1-(4-Chloro-phenyl)-7-isopropoxy-6-methoxy-3-oxo-3,4-dihydro-1H-isoquinolin-2-yl]-pyridin-2-yl}-1-hydroxy-ethyl)-phenyl]-acetamide]?
**A.** IC50 [1]: 61.3 µM; IC50 [2]: 0.0544 µM

**Q.** COc1cc2c(cc1OC(C)C)[C@H](c1ccc(Cl)cc1)N(c1ccc(C(C)(O)C3CCNC(=O)C3)cc1)C(=O)C2 (stereo partly drawn) [Example 49, (S)-1-(4-Chloro-phenyl)-2-{4-[1-hydroxy-1-(2-oxo-piperidin-4-yl)-ethyl]-phenyl}-7-isopropoxy-6-methoxy-1,4-dihydro-2H-isoquinolin-3-one] was tested. Which IC50 [1] did it give?
**A.** 8.07 µM

**Q.** What about the IC50 [2] of the same molecule?
**A.** 0.011 µM

**Q.** With COc1cc2c(cc1OC(C)C)[C@H](c1ccc(Cl)cc1)N(c1ccc(C(C)(O)C3CCCCC3)cc1)C(=O)C2 (stereo partly drawn) [Example 63, (S)-1-(4-Chloro-phenyl)-2-[4-(1-cyclohexyl-1-hydroxy-ethyl)-phenyl]-7-isopropoxy-6-methoxy-1,4-dihydro-2H-isoquinolin-3-one] as the molecule, how does the IC50 [1] read?
**A.** 40.5 µM

**Q.** And the IC50 [2]?
**A.** 0.0154 µM

**Q.** Which IC50 [1] does the source give for COc1cc2c(cc1OC(C)C)[C@H](c1ccc(Cl)cc1)N(c1ccc(C(C)(O)C3CCNCC3)cc1)C(=O)C2 (stereo partly drawn) [Example 43, (S)-1-(4-Chloro-phenyl)-2-[4-(1-hydroxy-1-piperidin-4-yl-ethyl)-phenyl]-7-isopropoxy-6-methoxy-1,4-dihydro-2H-isoquinolin-3-one] here?
**A.** 4.99 µM

**Q.** And the IC50 [2]?
**A.** 0.0041 µM

**Q.** CCN1CC(C(C)(O)c2ccc(N3C(=O)Cc4cc(OC)c(OC(C)C)cc4[C@@H]3c3ccc(Cl)cc3)cc2)C1 (stereo partly drawn) [Example 71, (S)-1-(4-Chloro-phenyl)-2-{4-[1-(1-ethyl-azetidin-3-yl)-1-hydroxy-ethyl]-phenyl}-7-isopropoxy-6-methoxy-1,4-dihydro-2H-isoquinolin-3-one] was tested. Which IC50 [1] did it give?
**A.** 30.1 µM

**Q.** What about the IC50 [2] of the same molecule?
**A.** 0.026 µM

**Q.** How did the IC50 [1] turn out when COc1cc2c(cc1OC(C)C)[C@H](c1ccc(Cl)cc1)N(c1ccc([C@@](C)(O)C3CCOCC3)cc1)C(=O)C2 (single isomer, unassigned) [Example 32] was run?
**A.** 2.19 µM

**Q.** And the IC50 [2]?
**A.** 0.0023 µM

**Q.** COc1cc2c(cc1OC(C)C)[C@H](c1ccc(Cl)cc1)N(c1ccc(C(C)(O)C3CCOCC3)cc1OC)C(=O)C2 (stereo partly drawn) [Example 36, (S)-1-(4-Chloro-phenyl)-2-{4-[1-hydroxy-1-(tetrahydro-pyran-4-yl)-ethyl]-2-methoxy-phenyl}-7-isopropoxy-6-methoxy-1,4-dihydro-2H-isoquinolin-3-one] was tested. Which IC50 [1] did it give?
**A.** 6.03 µM

**Q.** And the IC50 [2]?
**A.** 0.0051 µM

**Q.** Which results are given for COc1cc2c(cc1OC(C)C)[C@H](c1ccc(Cl)cc1)N(c1ccc(C(C)(O)C3CN(C(=O)OC(C)(C)C)C3)cc1)C(=O)C2 (stereo partly drawn) [Example 64, 3-(1-{4-[(S)-1-(4-Chloro-phenyl)-7-isopropoxy-6-methoxy-3-oxo-3,4-dihydro-1H-isoquinolin-2-yl]-phenyl}-1-hydroxy-ethyl)-azetidine-1-carboxylic acid tert-butyl ester]?
**A.** IC50 [1]: 10.6 µM; IC50 [2]: 0.0072 µM

**Q.** Which IC50 [1] does the source give for COc1cc2c(cc1OC(C)C)[C@H](c1ccc(Cl)cc1)N(c1ccc(C(C)(O)C3CCN(C(=O)NC(C)C)CC3)cc1)C(=O)C2 (stereo partly drawn) [Example 84, 4-(1-{4-[(S)-1-(4-Chloro-phenyl)-7-isopropoxy-6-methoxy-3-oxo-3,4-dihydro-1H-isoquinolin-2-yl]-phenyl}-1-hydroxy-ethyl)-piperidine-1-carboxylic acid isopropylamide] here?
**A.** 5.91 µM

**Q.** And the IC50 [2]?
**A.** 0.0056 µM

**Q.** Which IC50 [1] does the source give for CNC(=O)N1CCC(C(C)(O)c2ccc(N3C(=O)Cc4cc(OC)c(OC(C)C)cc4[C@@H]3c3ccc(Cl)cc3)cc2)CC1 (stereo partly drawn) [Example 79, 4-(1-{4-[(S)-1-(4-Chloro-phenyl)-7-isopropoxy-6-methoxy-3-oxo-3,4-dihydro-1H-isoquinolin-2-yl]-phenyl}-1-hydroxy-ethyl)-piperidine-1-carboxylic acid methylamide] here?
**A.** 5.63 µM

**Q.** And the IC50 [2]?
**A.** 0.0052 µM

**Q.** For COc1cc2c(cc1OC(C)C)[C@H](c1ccc(Cl)cc1)N(c1ccc(C(C)(C)O)cc1)C(=O)C2 [Example 11, (S)-1-(4-Chloro-phenyl)-2-[4-(1-hydroxy-1-methyl-ethyl)-phenyl]-7-isopropoxy-6-methoxy-1,4-dihydro-2H-isoquinolin-3-one], which IC50 [1] is on record?
**A.** 51.6 µM

**Q.** What about the IC50 [2] of the same molecule?
**A.** 0.0555 µM

**Q.** With COc1cc2c(cc1OC(C)C)[C@H](c1ccc(Cl)cc1)N(c1ccc(C(C)(O)C3CCOCC3)cn1)C(=O)C2 (stereo partly drawn) [Example 37, (S)-1-(4-Chloro-phenyl)-2-{5-[1-hydroxy-1-(tetrahydro-pyran-4-yl)-ethyl]-pyridin-2-yl}-7-isopropoxy-6-methoxy-1,4-dihydro-2H-isoquinolin-3-one] as the molecule, how does the IC50 [1] read?
**A.** 13.8 µM

**Q.** What about the IC50 [2] of the same molecule?
**A.** 0.0117 µM

**Q.** COc1cc2c(cc1OC(C)C)[C@H](c1ccc(Cl)cc1)N(c1ccc([C@](C)(O)C3CC4CCC(C3)S4(=O)=O)cc1)C(=O)C2 (stereo partly drawn) [Example 173, (S)-1-(4-Chloro-phenyl)-2-{4-[(R)-1-(8,8-dioxo-8-thia-bicyclo[3.2.1]oct-3-yl)-1-hydroxy-ethyl]-phenyl}-7-isopropoxy-6-methoxy-1,4-dihydro-2H-isoquinolin-3-one] was tested. Which IC50 [1] did it give?
**A.** 41.4 µM

**Q.** And the IC50 [2]?
**A.** 0.0943 µM
